According to US9783510B2, “Small molecule mediated transcriptional induction of E-cadherin” (Vanderbilt University, priority 2014, dated 2017):

System: E-cadherin expression in SW620 cells
Assay: E-cadherin expression, in-cell Western (ICW), SW620 cells
Assay type: cell-based
Details: Homo sapiens, SW-620, 24 h, change in expression level of E-cadherin in response to 10 μM compound, 24 hours, SW620 cells
Protocol: SW620 and H520 cells (5×10^4/100 μL) were seeded in a 96-well plate prior to treatment. Cells were treated with 10 μM concentration of synthesized compound in quadruplicate for 24 hours in RPMI 1640 supplemented medium and 100 μg/mL penicillin-streptomycin. The cells were then fixed with 100% methanol for 20 minutes at 4° C. The wells were then washed 2 times with PBS, permeabilized in 2% bovine serum albumin (BSA) and 0.2% TritonX-100 in PBS for 30 minutes at room temperature with gentle agitation, and blocked in LI-COR blocking buffer for 30 minutes at room temperature with gentle agitation. The cells were then incubated with the following primary antibodies: anti-E-Cadherin (1:500) and anti-α-Tubulin (1:1000) diluted in blocking buffer (1:1 dilution in PBS) for 2 hours at room temperature with gentle agitation. The cells were washed 4 times in PBS-T for 5 minutes each, and then incubated with the following secondary antibodies conjugated to a fluorescent entity: IRDye 800-conjugated goat anti-rabbit IgG (1:1000) and IRDye-700-conjugated goat anti-mouse IgG (1:2000) in blocking buffer (1:1 dilution in PBS) with gentle agitation for 1 h at room temperature. The cells were washed 4 times in PBS-T for 5 minutes each followed by a single wash with PBS. All liquid was removed from the wells and the plates were visualized and analyzed on the Odyssey IR imaging system (LI-COR Biosciences).
The assay was further optimized in the following manner. The cells were washed 2 times with PBS, fixed in 100% methanol at room temperature for 15 minutes, and again washed 2 times with PBS. The cells were then incubated with the following primary antibodies: anti-E-Cadherin (1:200) and anti-α-Tubulin (1:2000) diluted in ice cold 2% bovine serum albumin (BSA) and 0.2% TritonX-100 in PBS for 1 hour at room temperature with gentle agitation. The cells were washed 2 times in PBS and then incubated with the following secondary antibodies conjugated to a fluorescent entity: Licor 800-conjugated goat anti-rabbit IgG (1:2000) and IRDye-700-conjugated goat anti-mouse IgG (1:2000) in ice cold 2% BSA and 0.2% TritonX-100 in PBS with gentle agitation for 45 minutes at room temperature. The wells were washed 2 times in PBS, dried, and analyzed as previously mentioned.
N-Acetamidoalkyl-5-arylisoxazole-3-carboxamide analogs were synthesized as described above. Changes in expression level of E-cadherin in response to 10 μM compound in SW620 cells was determined in a cell-based functional assay as described above, and the data are shown in Table III. The compound number corresponds to the compound numbers used in Table II.
EC50 of inducement of E-cadherin expression in SW620 cells was determined in a cell-based functional assay as described above, and the data are shown in Table V. The compound number corresponds to the compound numbers used in Table IV.

With `O=C(NCCCNC(=O)c1cncc(Cl)n1)c1cc(-c2cccs2)on1` [Compound 83, N-(3-(6-chloropyrazine-2-carboxamido)propyl)-5-(thiophen-2-yl)isoxazole-3-carboxamide] as the compound, how does the fold induction at 10 µM read?
Its fold induction at 10 µM is 2.64.

How did the fold induction at 10 µM turn out when `O=C(NCCCNC(=O)c1cc2ccccc2o1)c1cc(-c2ccccc2)on1` [Compound 96, N-(3-(benzofuran-2-carboxamido)propyl)-5-phenylisoxazole-3-carboxamide] was run?
The fold induction at 10 µM was 2.58.

For `CCc1ccc(C(=O)NCCCNC(=O)c2cc(-c3ccccc3)on2)o1` [Compound 115, N-(3-(5-ethylfuran-2-carboxamido)propyl)-5-phenylisoxazole-3-carboxamide], which fold induction at 10 µM is on record?
Its fold induction at 10 µM is 3.83.

How did the fold induction at 10 µM turn out when `O=C(CCCC[C@@H]1SC[C@@H]2NC(=O)N[C@@H]21)Nc1ccc(C(=O)NCCCNC(=O)c2cc(-c3ccccc3)on2)cc1` [Compound 17, N-(3-(4-(5-((3aS,4S,6aR)-2-oxohexahydro-1H-thieno[3,4-d]imidazol-4-yl)pentanamido)benzamido)propyl)-5-phenylisoxazole-3-carboxamide] was run?
Its fold induction at 10 µM is 1.04.

With `O=C(NCCCNC(=O)c1cc(-c2cccs2)on1)c1cc(-c2ccccc2)ccn1` [Compound 106, N-(3-(4-phenylpicolinamido)propyl)-5-(thiophen-2-yl)isoxazole-3-carboxamide] as the compound, how does the fold induction at 10 µM read?
Its fold induction at 10 µM is 3.69.

With `O=C(NCCCNC(=O)c1cccc(C(F)(F)F)n1)c1cc(-c2cccs2)on1` [Compound 107, 5-(thiophen-2-yl)-N-(3-(6-(trifluoromethyl)picolinamido)propyl)isoxazole-3-carboxamide] as the compound, how does the fold induction at 10 µM read?
The fold induction at 10 µM was 4.15.

With `O=C(NCCCNC(=O)c1cc(-c2ccccc2)on1)c1cc(Cl)ccn1` [Compound 57, N-(3-(4-chloropicolinamido)propyl)-5-phenylisoxazole-3-carboxamide] as the compound, how does the fold induction at 10 µM read?
Its fold induction at 10 µM is 3.3.

For `O=C(NCCCNC(=O)c1ccc2ccccc2n1)c1cc(-c2ccccc2)on1` [Compound 86, 5-phenyl-N-(3-(quinoline-2-carboxamido)propyl)isoxazole-3-carboxamide], which fold induction at 10 µM is on record?
The fold induction at 10 µM was 3.48.

How did the fold induction at 10 µM turn out when `Cc1ccc(C(=O)NCCCNC(=O)c2cc(-c3cccs3)on2)c(O)n1` [Compound 46, N-(3-(2-hydroxy-6-methylnicotinamido)propyl)-5-(thiophen-2-yl)isoxazole-3-carboxamide] was run?
Its fold induction at 10 µM is 3.48.

For `O=C(NCCCNC(=O)c1cnn[nH]1)c1cc(-c2ccccc2)on1` [Compound 117, N-(3-(1H-1,2,3-triazole-5-carboxamido)propyl)-5-phenylisoxazole-3-carboxamide], which fold induction at 10 µM is on record?
The fold induction at 10 µM was 3.71.

With `O=C(NCCCNC(=O)c1occc1-c1ccccc1)c1cc(-c2ccccc2)on1` [Compound 114, 5-phenyl-N-(3-(3-phenylfuran-2-carboxamido)propyl)isoxazole-3-carboxamide] as the compound, how does the fold induction at 10 µM read?
Its fold induction at 10 µM is 4.7.

Which fold induction at 10 µM does the source give for `O=C(CCCC[C@@H]1SC[C@@H]2NC(=O)N[C@@H]21)Nc1cccc(C(=O)NCCCNC(=O)c2cc(-c3ccccc3)on2)c1` [Compound 18, N-(3-(3-(5-((3aS,4S,6aR)-2-oxohexahydro-1H-thieno[3,4-d]imidazol-4-yl)pentanamido)benzamido)propyl)-5-phenylisoxazole-3-carboxamide] here?
Its fold induction at 10 µM is 1.05.

`O=C(NCCNC(=O)c1cnccc1O)c1cc(-c2ccccc2)on1` [Compound 12, N-(2-(4-hydroxynicotinamido)ethyl)-5-phenylisoxazole-3-carboxamide] was tested. Which fold induction at 10 µM did it give?
The fold induction at 10 µM was 3.25.

Which fold induction at 10 µM does the source give for `O=C(NCCCNC(=O)C1CCCCO1)c1cc(-c2ccccc2)on1` (stereo not shown) [Compound 121, 5-phenyl-N-(3-(tetrahydro-2H-pyran-2-carboxamido)propyl)isoxazole-3-carboxamide] here?
Its fold induction at 10 µM is 3.74.

How did the fold induction at 10 µM turn out when `O=C(NCCCNC(=O)c1cc(-c2ccccc2)on1)c1ccc(O)c(O)c1` [Compound 36, N-(3-(3,4-dihydroxybenzamido)propyl)-5-phenylisoxazole-3-carboxamide] was run?
The fold induction at 10 µM was 2.69.

Which fold induction at 10 µM does the source give for `O=C(NCCCNC(=O)c1cncc(Cl)n1)c1cc(-c2ccccc2)on1` [Compound 94, N-(3-(6-chloropyrazine-2-carboxamido)propyl)-5-phenylisoxazole-3-carboxamide] here?
The fold induction at 10 µM was 3.69.

For `O=C(NCCCNC(=O)c1cc(-c2ccccc2)on1)c1ccc(O)nc1` [Compound 67, N-(3-(6-hydroxynicotinamido)propyl)-5-phenylisoxazole-3-carboxamide], which fold induction at 10 µM is on record?
Its fold induction at 10 µM is 1.22.

With `Cc1cccnc1C(=O)NCCCNC(=O)c1cc(-c2cccs2)on1` [Compound 55, N-(3-(3-methylpicolinamido)propyl)-5-(thiophen-2-yl)isoxazole-3-carboxamide] as the compound, how does the fold induction at 10 µM read?
Its fold induction at 10 µM is 2.98.

For `O=C(NCCCNC(=O)c1cc(-c2ccccc2)on1)c1cocn1` [Compound 29, N-(3-(oxazole-4-carboxamido)propyl)-5-phenylisoxazole-3-carboxamide], which fold induction at 10 µM is on record?
Its fold induction at 10 µM is 3.35.

Which fold induction at 10 µM does the source give for `Cc1cc(C)c(C(=O)NCCCNC(=O)c2cc(-c3cccs3)on2)o1` [Compound 110, N-(3-(3,5-dimethylfuran-2-carboxamido)propyl)-5-(thiophen-2-yl)isoxazole-3-carboxamide] here?
The fold induction at 10 µM was 3.74.

How did the fold induction at 10 µM turn out when `O=C(NCCCNC(=O)c1cc(-c2ccccc2)on1)c1cccnc1` [Compound 56, N-(3-(nicotinamido)propyl)-5-phenylisoxazole-3-carboxamide] was run?
The fold induction at 10 µM was 3.43.

How did the fold induction at 10 µM turn out when `Cc1ccnc(O)c1C(=O)NCCCNC(=O)c1cc(-c2cccs2)on1` [Compound 51, N-(3-(2-hydroxy-4-methylnicotinamido)propyl)-5-(thiophen-2-yl)isoxazole-3-carboxamide] was run?
Its fold induction at 10 µM is 2.73.

Which fold induction at 10 µM does the source give for `O=C(NCCCNC(=O)c1ccncc1O)c1cc(-c2ccccc2)on1` [Compound 59, N-(3-(3-hydroxyisonicotinamido)propyl)-5-phenylisoxazole-3-carboxamide] here?
The fold induction at 10 µM was 1.26.

With `O=C(NCCCNC(=O)c1cncnc1O)c1cc(-c2cccs2)on1` [Compound 42, N-(3-(4-hydroxypyrimidine-5-carboxamido)propyl)-5-(thiophen-2-yl)isoxazole-3-carboxamide] as the compound, how does the fold induction at 10 µM read?
Its fold induction at 10 µM is 0.95.

`O=C(Cc1c[nH]c2ccccc12)NCCCNC(=O)c1cc(-c2ccccc2)on1` [Compound 95, N-(3-(2-(1H-indol-3-yl)acetamido)propyl)-5-phenylisoxazole-3-carboxamide] was tested. Which fold induction at 10 µM did it give?
Its fold induction at 10 µM is 4.2.

For `Cc1ccc(C(=O)NCCCNC(=O)c2cc(-c3ccccc3)on2)c(O)n1` [Compound 63, N-(3-(2-hydroxy-6-methylnicotinamido)propyl)-5-phenylisoxazole-3-carboxamide], which fold induction at 10 µM is on record?
The fold induction at 10 µM was 4.59.

Which fold induction at 10 µM does the source give for `COc1ccc(C(=O)NCCCNC(=O)c2cc(-c3ccccc3)on2)c(OC)n1` [Compound 60, N-(3-(2,6-dimethoxynicotinamido)propyl)-5-phenylisoxazole-3-carboxamide] here?
The fold induction at 10 µM was 2.32.

How did the fold induction at 10 µM turn out when `O=C(NCCCNC(=O)c1ccc(Cl)o1)c1cc(-c2cccs2)on1` [Compound 99, N-(3-(5-chlorofuran-2-carboxamido)propyl)-5-(thiophen-2-yl)isoxazole-3-carboxamide] was run?
Its fold induction at 10 µM is 3.66.

Which fold induction at 10 µM does the source give for `O=C(NCCCNC(=O)c1cc(-c2cccs2)on1)c1ccc(O)cn1` [Compound 41, N-(3-(5-hydroxypicolinamido)propyl)-5-(thiophen-2-yl)isoxazole-3-carboxamide] here?
The fold induction at 10 µM was 2.77.

`O=C(NCCNC(=O)c1cc(-c2ccccc2)on1)c1cc(O)cc(Br)c1` [Compound 10, N-(2-(3-bromo-5-hydroxybenzamido)ethyl)-5-phenylisoxazole-3-carboxamide] was tested. Which fold induction at 10 µM did it give?
Its fold induction at 10 µM is 2.35.

Which fold induction at 10 µM does the source give for `O=C(NCCCNC(=O)c1ccno1)c1cc(-c2cccs2)on1` [Compound 102, N-(3-(isoxazole-5-carboxamido)propyl)-5-(thiophen-2-yl)isoxazole-3-carboxamide] here?
Its fold induction at 10 µM is 2.87.

`O=C(NCCCNC(=O)c1cc(-c2ccccc2)on1)c1ccnc(O)c1` [Compound 64, N-(3-(2-hydroxyisonicotinamido)propyl)-5-phenylisoxazole-3-carboxamide] was tested. Which fold induction at 10 µM did it give?
Its fold induction at 10 µM is 1.8.

How did the fold induction at 10 µM turn out when `O=C(NCCCNC(=O)c1cccc(C(F)(F)F)n1)c1cc(-c2ccccc2)on1` [Compound 120, 5-phenyl-N-(3-(6-(trifluoromethyl)picolinamido)propyl)isoxazole-3-carboxamide] was run?
The fold induction at 10 µM was 3.08.

Same assay, conditions: Homo sapiens, SW-620; inducement of E-cadherin expression in SW620 cells

With `O=C(NCCCNC(=O)c1cccc(C(F)(F)F)n1)c1cc(-c2cccs2)on1` [Compound 107, 5-(thiophen-2-yl)-N-(3-(6-(trifluoromethyl)picolinamido)propyl)isoxazole-3-carboxamide] as the compound, how does the EC50 read?
Its EC50 is 6.95 µM.

How did the EC50 turn out when `O=C(NCCCNC(=O)c1occc1-c1ccccc1)c1cc(-c2ccccc2)on1` [Compound 114, 5-phenyl-N-(3-(3-phenylfuran-2-carboxamido)propyl)isoxazole-3-carboxamide] was run?
The EC50 was 6.35 µM.

How did the EC50 turn out when `O=C(Cc1c[nH]c2ccccc12)NCCCNC(=O)c1cc(-c2ccccc2)on1` [Compound 95, N-(3-(2-(1H-indol-3-yl)acetamido)propyl)-5-phenylisoxazole-3-carboxamide] was run?
The EC50 was 2.57 µM.

Which EC50 does the source give for `Cc1ccc(C(=O)NCCCNC(=O)c2cc(-c3ccccc3)on2)c(O)n1` [Compound 63, N-(3-(2-hydroxy-6-methylnicotinamido)propyl)-5-phenylisoxazole-3-carboxamide] here?
Its EC50 is 5.64 µM.
